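Five compound concentrations were applied to cells in 96-well plates for 48 hours; endpoints were derived by simple linear interpolation of the resulting dose-response curve. Abbreviation: GI50, concentration required for 50% inhibition of growth.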 Active and inactive are the calls of the source. Cut-off read from the data, not from the text of the source: active = GI50 up to about 1.1 µM and inactive = higher.

Assay in all cases: NCI anticancer screen, dose series, 48 h
The test system of experiment [1] is CCRF-CEM.
Experiment [2] concerns COLO 205.
Experiment [3] deals with HCC 2998.
The test system of experiment [4] is MDA-MB-231.
In experiment [5] the test system is MDA-N.
The test system of experiment [6] is Malme-3M.
The subject of experiment [7] is NCI-H226.
Experiment [8] relates to NCI-H23.
For experiment [9], the system named is OVCAR-5.
Experiment [10] concerns SF-268.
Experiment [11] concerns SF-295.
In experiment [12] the test system is SK-MEL-5.
For experiment [13], the system named is SK-OV-3.
Experiment [14] has as its system SN12C.
In experiment [15] the test system is SNB-19.
The subject of experiment [16] is SNB-75.
Experiment [17] has as its system UACC-257.
Experiment [18] has as its system UO-31.
Experiment [19] concerns A498.

For the molecule `CCOC(=O)C(NC(=O)c1ccccc1)(Nc1ccc(S(=O)(=O)Nc2nc(C)cc(C)n2)cc1)C(F)(F)F` (stereo unspecified), the GI50 was > 100 µM (inactive) in experiment [1]; > 100 µM (inactive) in [2]; > 100 µM (inactive) in experiment [3]; 86.5 µM (inactive) in [4]; > 100 µM (inactive) in [5]; > 100 µM (inactive) in experiment [6]. Moreover, the GI50 in [7], in experiment [8], in [9], in experiment [10], in [11] and in experiment [12] was > 100 µM (inactive) in each case. The GI50 in experiment [13] is 0.778 µM (active); in experiment [14], > 100 µM (inactive); in experiment [15], > 100 µM (inactive); in [16], > 100 µM (inactive); in [17] it was > 100 µM (inactive); in [18] it was > 100 µM (inactive).

Take `Oc1ccc(Oc2cc3c(cc2Oc2ccc(O)cc2)-c2nc-3nc3[nH]c(nc4nc(nc5[nH]c(n2)c2cc(Oc6ccc(O)cc6)c(Oc6ccc(O)cc6)cc52)-c2cc(Oc5ccc(O)cc5)c(Oc5ccc(O)cc5)cc2-4)c2cc(Oc4ccc(O)cc4)c(Oc4ccc(O)cc4)cc32)cc1`: the GI50 was > 100 µM (inactive) in experiment [1]; > 100 µM (inactive) in experiment [2]; > 100 µM (inactive) in experiment [3]; 23.5 µM (inactive) in [4]; > 100 µM (inactive) in experiment [5]; 19.1 µM (inactive) in experiment [6]. For the same molecule, the GI50 was > 100 µM (inactive) in experiment [7]; > 100 µM (inactive) in [8]; 85.5 µM (inactive) in experiment [9]; > 100 µM (inactive) in [10]; 37.8 µM (inactive) in [11]; 60.1 µM (inactive) in [12]. The GI50 in [13], in experiment [14], in [15], in experiment [16], in experiment [17] and in experiment [18] was > 100 µM (inactive) throughout.

Regarding `CN(/N=C/C=N/N(C)C1=NCCN1)C1=NCCN1`, the GI50 in experiment [1], in experiment [2], in [3], in experiment [4], in [5] and in experiment [6] was > 100 µM (inactive) in each case. Further, the GI50 in [7], in experiment [8], in experiment [9], in experiment [10], in experiment [11] and in experiment [12] was > 100 µM (inactive) each time. Also, the GI50 in experiment [13], in experiment [14], in [15], in [16], in experiment [17] and in experiment [18] was > 100 µM (inactive) throughout.

Regarding `Cc1ccc2c(=O)c(-c3n[nH]c(=S)s3)c[nH]c2n1`, the GI50 in experiment [19], in [1], in experiment [2], in [4], in experiment [5] and in [6] was > 100 µM (inactive) throughout. Also, the GI50 in experiment [7], in experiment [8], in [9], in experiment [10], in experiment [11] and in experiment [12] was > 100 µM (inactive) throughout. Further, the GI50 in experiment [14], in experiment [15], in experiment [17] and in experiment [18] was > 100 µM (inactive) each time.

With `O=C(NCCC1CNc2ccccc21)OCc1ccccc1` (stereo unspecified), the GI50 in experiment [19] is > 100 µM (inactive); in [1], 87.7 µM (inactive); in experiment [2], > 100 µM (inactive); in experiment [3], > 100 µM (inactive); in experiment [4], > 100 µM (inactive); in experiment [5], > 100 µM (inactive). For the same molecule, the GI50 in experiment [6], in experiment [8], in [9], in experiment [10], in [11] and in experiment [12] was > 100 µM (inactive) throughout. For the same molecule, the GI50 in [13], in experiment [15], in experiment [17] and in experiment [18] was > 100 µM (inactive) each time.

For the molecule `CC1=NN(c2nc(N)nc(/C(C#N)=C\c3csc([N+](=O)[O-])c3)n2)C(C)(C)C1`, the GI50 in experiment [19] is > 100 µM (inactive); in experiment [1], 2.23 µM (inactive); in experiment [3], 31.7 µM (inactive); in experiment [4], 26.9 µM (inactive); in experiment [5], 27.7 µM (inactive); in experiment [7] it was 25.8 µM (inactive). Also, the GI50 in experiment [8] is 32.1 µM (inactive); in experiment [9] it was 34.7 µM (inactive); in experiment [10] it was 21.8 µM (inactive); in experiment [11] it was 45.5 µM (inactive); in [12], 30.5 µM (inactive); in experiment [13], 42.2 µM (inactive). Also, the GI50 in experiment [17] is 45.7 µM (inactive); in experiment [18], 37.4 µM (inactive).

With `CC(=O)Oc1cc(S(=O)(=O)Nc2nc(N)n[nH]2)c(S)cc1Cl`, the GI50 in [19], in [1], in [2], in experiment [3], in experiment [4] and in [5] was > 100 µM (inactive) in each case. In addition, the GI50 in experiment [6], in experiment [8], in experiment [9], in experiment [11], in [12] and in experiment [14] was > 100 µM (inactive) in each case. In addition, the GI50 in experiment [15], in experiment [17] and in experiment [18] was > 100 µM (inactive) in each case.

Turning to `COc1ccc(SC(C)(SC)c2ccccn2)c(OC)n1` (stereo unspecified), the GI50 in experiment [19] is 53.3 µM (inactive); in experiment [2], 31.6 µM (inactive); in experiment [3], > 100 µM (inactive); in [4], > 100 µM (inactive); in experiment [5], 84.1 µM (inactive); in experiment [6], 71.1 µM (inactive). Also, the GI50 is 42.5 µM (inactive) in experiment [7]; 35.4 µM (inactive) in experiment [8]; > 100 µM (inactive) in experiment [9]; > 100 µM (inactive) in [10]; 49.2 µM (inactive) in [11]; 37.4 µM (inactive) in experiment [12]. Besides, the GI50 was > 100 µM (inactive) in experiment [14], > 100 µM (inactive) in [15], 67.3 µM (inactive) in experiment [17] and > 100 µM (inactive) in experiment [18].

Source of the values: ChEMBL document CHEMBL1201862, “PubChem BioAssay data set” (2004).
